Tests used:
[1] = system: GLXMAW (Soybean, Williams); assay: Postemergence herbicidal evaluation; assay type: in vivo, Glycine max, (L.) Merr. cv Williams; conditions: postemergence
Method in brief: (§1)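 Visual 0–9 rating versus control (stand, vigor, malformation, size, chlorosis, overall appearance), taken four to five weeks post-spray. Two-week-old seedlings received roughly 0.0156–0.500 kg/ha active in acetone/water (50/50) with 0.5% TWEEN 20 via nozzle at 40 psi.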

AMBEL (Ragweed, Common) [2] = assay: Preemergence herbicidal evaluation; assay type: in vivo, Ambrosia artemisifolia; conditions: rated 4-5 weeks after treatment
Method in brief: (§2)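 Herbicidal effect scored visually, 0-9, at 4 to 5 weeks against a control; compound applied preemergence by aqueous acetone spray to seeded soil at about 0.0156 to 0.500 kg/ha.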

ABUTH (Velvetleaf) = assay: Preemergence herbicidal evaluation; assay type: in vivo, Abutilon theophrasti; conditions: rated 4-5 weeks after treatment
Method in brief: as §2

AMBEL (Ragweed, Common) [3] = assay: Postemergence herbicidal evaluation; assay type: in vivo, Ambrosia artemisifolia; conditions: postemergence
Method in brief: as §1

SETVI (Foxtail, Green) = assay: Postemergence herbicidal evaluation; assay type: in vivo, Setaria viridis; conditions: postemergence
Method in brief: as §1

ORYSAT (Rice, Tebonnet) = assay: Postemergence herbicidal evaluation; assay type: in vivo, Oryza sativa, (L.) Tebonnet; conditions: postemergence
Method in brief: as §1

[4] = system: CHEAL (Lambsquarters, Common); assay: Preemergence herbicidal evaluation; assay type: in vivo, Chenopodium album; conditions: rated 4-5 weeks after treatment
Method in brief: as §2

[5] = system: ECHORC (Watergrass (Calif.)); assay: Preemergence weed control under flooded paddy conditions; assay type: in vivo, Echinochloa oryzoides; conditions: rated 3-4 weeks after treatment
Method in brief: (§3)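 First, seeds or propagules go into the top 0.5 cm of silt loam; next, water is held 1.5 to 3 cm over the soil; then compound (50/50 acetone/water) is pipetted into it at about 0.0313 to 0.500 kg/ha; finally plants are rated visually 0-9 after three to four weeks.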

CYPSE (Flatsedge) = assay: as above; assay type: in vivo, Cyperus serotinus; conditions: rated 3-4 weeks after treatment
Method in brief: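 Seeds or propagules sown in silt loam kept flooded 1.5-3 cm; compounds in 50/50 acetone/water pipetted into flood water at about 0.0313 to 0.500 kg/ha. Greenhouse; visual 0-9 rating versus untreated control 3-4 weeks after treatment.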

[6] = system: GLXMAW (Soybean, Williams); assay: Preemergence herbicidal evaluation; assay type: in vivo, Glycine max, (L.) Merr. cv Williams; conditions: rated 4-5 weeks after treatment
Method in brief: as §2

CYPIR (Rice Flatsedge) = assay: Preemergence weed control under flooded paddy conditions; assay type: in vivo, Cyperus iria; conditions: rated 3-4 weeks after treatment
Method in brief: as §3

ECHCG (Barnyardgrass) = assay: Postemergence herbicidal evaluation; assay type: in vivo, Echinochloa crus-galli; conditions: postemergence
Method in brief: as §1

ZEAMX (Corn, Field) = assay: Preemergence herbicidal evaluation; assay type: in vivo, Zea mays; conditions: rated 4-5 weeks after treatment
Method in brief: as §2

C#CCOC(=O)CN1C(=O)CSC1=Nc1cc(-n2c(=O)cc(C(F)(F)F)n(C)c2=O)c(F)cc1Cl [Compound 115, 2-Propynyl 2-{{2-chloro-5-[3,6-dihydro-3-methyl-2,6-dioxo-4-(trifluoromethyl)-1(2H)-pyrimidinyl]-4-fluorophenyl}imino}-4-oxo-3-thiazolidineacetate]
Herbicidal rating GLXMAW ([1]; rate 0.0158 kg/ha): 5.0 | Herbicidal rating GLXMAW ([1]; rate 0.0315 kg/ha): 5.0 | Herbicidal rating GLXMAW ([1]; rate 0.0630 kg/ha): 5.0 | Preemergence herbicidal rating AMBEL (AMBEL (Ragweed, Common) [2]; rate 0.0156 kg/ha): 0.0 | Preemergence herbicidal rating AMBEL (AMBEL (Ragweed, Common) [2]; rate 0.0313 kg/ha): 0.0 | Preemergence herbicidal rating AMBEL (AMBEL (Ragweed, Common) [2]; rate 0.0625 kg/ha): 0.0 | Preemergence herbicidal rating AMBEL (AMBEL (Ragweed, Common) [2]; rate 0.1250 kg/ha): 0.0 | Preemergence herbicidal rating AMBEL (AMBEL (Ragweed, Common) [2]; rate 0.2500 kg/ha): 1.0 | Preemergence herbicidal rating ABUTH (ABUTH (Velvetleaf); rate 0.0156 kg/ha): 0.0 | Preemergence herbicidal rating ABUTH (ABUTH (Velvetleaf); rate 0.0313 kg/ha): 0.0 | Preemergence herbicidal rating ABUTH (ABUTH (Velvetleaf); rate 0.0625 kg/ha): 0.0 | Preemergence herbicidal rating ABUTH (ABUTH (Velvetleaf); rate 0.1250 kg/ha): 9.0 | Preemergence herbicidal rating ABUTH (ABUTH (Velvetleaf); rate 0.2500 kg/ha): 9.0 | Herbicidal rating AMBEL (AMBEL (Ragweed, Common) [3]; rate 0.0158 kg/ha): 1.0 | Herbicidal rating AMBEL (AMBEL (Ragweed, Common) [3]; rate 0.0315 kg/ha): 6.0 | Herbicidal rating AMBEL (AMBEL (Ragweed, Common) [3]; rate 0.0630 kg/ha): 7.0 | Herbicidal rating SETVI (SETVI (Foxtail, Green); rate 0.0158 kg/ha): 0.0 | Herbicidal rating SETVI (SETVI (Foxtail, Green); rate 0.0315 kg/ha): 4.0 | Herbicidal rating SETVI (SETVI (Foxtail, Green); rate 0.0630 kg/ha): 9.0 | Herbicidal rating ORYSAT (ORYSAT (Rice, Tebonnet); rate 0.0158 kg/ha): 1.5 | Herbicidal rating ORYSAT (ORYSAT (Rice, Tebonnet); rate 0.0315 kg/ha): 2.0 | Herbicidal rating ORYSAT (ORYSAT (Rice, Tebonnet); rate 0.0630 kg/ha): 2.5 | Preemergence herbicidal rating CHEAL ([4]; rate 0.0313 kg/ha): 5.0 | Preemergence herbicidal rating CHEAL ([4]; rate 0.0625 kg/ha): 7.0 | Preemergence herbicidal rating CHEAL ([4]; rate 0.1250 kg/ha): 9.0 | Preemergence herbicidal rating CHEAL ([4]; rate 0.2500 kg/ha): 9.0 | ECHORC herbicidal effect rating ([5]; 0.0313 kg/ha): 4.0 | ECHORC herbicidal effect rating ([5]; 0.0625 kg/ha): 4.0 | ECHORC herbicidal effect rating ([5]; 0.1250 kg/ha): 5.0 | ECHORC herbicidal effect rating ([5]; 0.2500 kg/ha): 5.0 | CYPSE herbicidal effect rating (CYPSE (Flatsedge); 0.0313 kg/ha): 0.0 | CYPSE herbicidal effect rating (CYPSE (Flatsedge); 0.0625 kg/ha): 0.0 | CYPSE herbicidal effect rating (CYPSE (Flatsedge); 0.2500 kg/ha): 6.0 | Preemergence herbicidal rating GLXMAW ([6]; rate 0.0156 kg/ha): 0.0 | Preemergence herbicidal rating GLXMAW ([6]; rate 0.0313 kg/ha): 0.0 | Preemergence herbicidal rating GLXMAW ([6]; rate 0.0625 kg/ha): 1.0 | Preemergence herbicidal rating GLXMAW ([6]; rate 0.1250 kg/ha): 3.0 | Preemergence herbicidal rating GLXMAW ([6]; rate 0.2500 kg/ha): 4.0 | CYPIR herbicidal effect rating (CYPIR (Rice Flatsedge); 0.0313 kg/ha): 5.0 | CYPIR herbicidal effect rating (CYPIR (Rice Flatsedge); 0.0625 kg/ha): 6.0 | CYPIR herbicidal effect rating (CYPIR (Rice Flatsedge); 0.1250 kg/ha): 9.0 | CYPIR herbicidal effect rating (CYPIR (Rice Flatsedge); 0.2500 kg/ha): 9.0 | Herbicidal rating ECHCG (ECHCG (Barnyardgrass); rate 0.0158 kg/ha): 0.0 | Herbicidal rating ECHCG (ECHCG (Barnyardgrass); rate 0.0315 kg/ha): 2.0 | Herbicidal rating ECHCG (ECHCG (Barnyardgrass); rate 0.0630 kg/ha): 3.0 | Preemergence herbicidal rating ZEAMX (ZEAMX (Corn, Field); rate 0.0156 kg/ha): 0.0 | Preemergence herbicidal rating ZEAMX (ZEAMX (Corn, Field); rate 0.0313 kg/ha): 0.0 | Preemergence herbicidal rating ZEAMX (ZEAMX (Corn, Field); rate 0.0625 kg/ha): 0.0 | Preemergence herbicidal rating ZEAMX (ZEAMX (Corn, Field); rate 0.1250 kg/ha): 1.0 | Preemergence herbicidal rating ZEAMX (ZEAMX (Corn, Field); rate 0.2500 kg/ha): 2.0

COC(=O)C(C)OC(=O)CN1C(=O)CSC1=Nc1cc(-n2c(=O)cc(C(F)(F)F)n(C)c2=O)c(F)cc1Cl (stereo not drawn) [Compound 116, 2-{{2-Chloro-5-[3,6-dihydro-3-methyl-2,6-dioxo-4-(trifluoromethyl)-1(2H)-pyrimidinyl]-4-fluorophenyl}imino}-4-oxo-3-thiazolidineacetic acid, ester with methyl lactate]
Herbicidal rating GLXMAW ([1]; rate 0.0158 kg/ha): 5.5 | Herbicidal rating GLXMAW ([1]; rate 0.0315 kg/ha): 5.5 | Herbicidal rating GLXMAW ([1]; rate 0.0630 kg/ha): 5.5 | Preemergence herbicidal rating AMBEL (AMBEL (Ragweed, Common) [2]; rate 0.0156 kg/ha): 0.0 | Preemergence herbicidal rating AMBEL (AMBEL (Ragweed, Common) [2]; rate 0.0313 kg/ha): 0.0 | Preemergence herbicidal rating AMBEL (AMBEL (Ragweed, Common) [2]; rate 0.0625 kg/ha): 2.0 | Preemergence herbicidal rating AMBEL (AMBEL (Ragweed, Common) [2]; rate 0.1250 kg/ha): 2.0 | Preemergence herbicidal rating AMBEL (AMBEL (Ragweed, Common) [2]; rate 0.2500 kg/ha): 1.0 | Preemergence herbicidal rating ABUTH (ABUTH (Velvetleaf); rate 0.0156 kg/ha): 0.0 | Preemergence herbicidal rating ABUTH (ABUTH (Velvetleaf); rate 0.0313 kg/ha): 0.0 | Preemergence herbicidal rating ABUTH (ABUTH (Velvetleaf); rate 0.0625 kg/ha): 4.0 | Preemergence herbicidal rating ABUTH (ABUTH (Velvetleaf); rate 0.1250 kg/ha): 9.0 | Preemergence herbicidal rating ABUTH (ABUTH (Velvetleaf); rate 0.2500 kg/ha): 9.0 | Herbicidal rating AMBEL (AMBEL (Ragweed, Common) [3]; rate 0.0158 kg/ha): 9.0 | Herbicidal rating AMBEL (AMBEL (Ragweed, Common) [3]; rate 0.0315 kg/ha): 9.0 | Herbicidal rating AMBEL (AMBEL (Ragweed, Common) [3]; rate 0.0630 kg/ha): 7.0 | Herbicidal rating SETVI (SETVI (Foxtail, Green); rate 0.0158 kg/ha): 1.0 | Herbicidal rating SETVI (SETVI (Foxtail, Green); rate 0.0315 kg/ha): 3.0 | Herbicidal rating SETVI (SETVI (Foxtail, Green); rate 0.0630 kg/ha): 3.0 | Herbicidal rating ORYSAT (ORYSAT (Rice, Tebonnet); rate 0.0158 kg/ha): 1.5 | Herbicidal rating ORYSAT (ORYSAT (Rice, Tebonnet); rate 0.0315 kg/ha): 2.0 | Herbicidal rating ORYSAT (ORYSAT (Rice, Tebonnet); rate 0.0630 kg/ha): 2.0 | Preemergence herbicidal rating CHEAL ([4]; rate 0.0156 kg/ha): 9.0 | Preemergence herbicidal rating CHEAL ([4]; rate 0.0313 kg/ha): 9.0 | Preemergence herbicidal rating CHEAL ([4]; rate 0.0625 kg/ha): 4.0 | Preemergence herbicidal rating CHEAL ([4]; rate 0.1250 kg/ha): 7.0 | Preemergence herbicidal rating CHEAL ([4]; rate 0.2500 kg/ha): 9.0 | herbicidal effect rating, ECHORC ([5]; 0.0313 kg/ha): 0.0 | herbicidal effect rating, ECHORC ([5]; 0.0625 kg/ha): 5.0 | ECHORC herbicidal effect rating ([5]; 0.1250 kg/ha): 6.0 | ECHORC herbicidal effect rating ([5]; 0.2500 kg/ha): 5.0 | herbicidal effect rating, CYPSE (CYPSE (Flatsedge); 0.0313 kg/ha): 6.0 | herbicidal effect rating, CYPSE (CYPSE (Flatsedge); 0.0625 kg/ha): 6.0 | CYPSE herbicidal effect rating (CYPSE (Flatsedge); 0.1250 kg/ha): 7.0 | CYPSE herbicidal effect rating (CYPSE (Flatsedge); 0.2500 kg/ha): 8.0 | Preemergence herbicidal rating GLXMAW ([6]; rate 0.0156 kg/ha): 1.0 | Preemergence herbicidal rating GLXMAW ([6]; rate 0.0313 kg/ha): 1.0 | Preemergence herbicidal rating GLXMAW ([6]; rate 0.0625 kg/ha): 0.0 | Preemergence herbicidal rating GLXMAW ([6]; rate 0.1250 kg/ha): 1.0 | Preemergence herbicidal rating GLXMAW ([6]; rate 0.2500 kg/ha): 2.0 | herbicidal effect rating, CYPIR (CYPIR (Rice Flatsedge); 0.0313 kg/ha): 3.0 | herbicidal effect rating, CYPIR (CYPIR (Rice Flatsedge); 0.0625 kg/ha): 6.0 | CYPIR herbicidal effect rating (CYPIR (Rice Flatsedge); 0.1250 kg/ha): 7.0 | CYPIR herbicidal effect rating (CYPIR (Rice Flatsedge); 0.2500 kg/ha): 7.0 | Herbicidal rating ECHCG (ECHCG (Barnyardgrass); rate 0.0158 kg/ha): 3.0 | Herbicidal rating ECHCG (ECHCG (Barnyardgrass); rate 0.0315 kg/ha): 1.0 | Herbicidal rating ECHCG (ECHCG (Barnyardgrass); rate 0.0630 kg/ha): 2.0 | Preemergence herbicidal rating ZEAMX (ZEAMX (Corn, Field); rate 0.0156 kg/ha): 0.0 | Preemergence herbicidal rating ZEAMX (ZEAMX (Corn, Field); rate 0.0313 kg/ha): 0.0 | Preemergence herbicidal rating ZEAMX (ZEAMX (Corn, Field); rate 0.0625 kg/ha): 0.0 | Preemergence herbicidal rating ZEAMX (ZEAMX (Corn, Field); rate 0.1250 kg/ha): 0.0 | Preemergence herbicidal rating ZEAMX (ZEAMX (Corn, Field); rate 0.2500 kg/ha): 0.0
